From patent publication US11420976B2 (priority 2020, dated 2022)

System: Human RSV-A (“Long” strain)
Assay: RSV-A assay (CPE, ATPlite readout in Hep-2 cells)
Assay type: cell-based
Conditions: human respiratory syncytial virus, 120 h; Hep-2 cells, MOI 0.1, 5-day incubation, ATPlite; read-out: Human RSV-A (“Long” strain) EC50
Text: Hep-2 cells, (originally derived from tumors grown in irradiated-cortisonised weanling rats that had been injected with epidermoid carcinoma tissue from a person's larynx, but later found to be indistinguishable from HeLa cells by PCR DNA analysis), were used for the culturing of genotype A, “Long” strain RSV. Flasks were inoculated with RSV and viral stocks were collected once cytopathic effect (CPE) was greater than 90%. Viral stocks in 25% sucrose media were snap frozen using liquid nitrogen to increase viral stability. Viral stock titers were quantified by tissue culture infectious dose 50% (TCID50) using 8,000 cells per well and 3-fold viral dilutions across a 96-well plate, cultured for 4 days. Viral stock titers were also quantified by a plaque forming unit assay, as described elsewhere.
Following extensive parameter testing, the final assay is run as follows: Hep-2 cells are seeded into the inner 60 wells of a 96-well plate at 8,000 cells per well in a volume of 50 μL using Growth Media (DMEM without phenol red, 1% L-Glut, 1% Penn/Strep, 1% nonessential amino acids, 10% heat-inactivated FBS). 2-fold serial dilutions of control and test compounds are added to the wells in duplicate in a total volume of 25 μL. Viral stock is then added to the wells at a multiplicity of infection (MOI) of 0.1 in a volume of 25 μL, bringing the total volume of each well to 100 μL. The MOI is calculated using the PFU/mL, or TCID50 if unavailable. Each 96-well plate has a control column of 6 wells with cells and virus but no compound (negative control, max CPE), a column with cells but no compound or virus (positive control, minimum CPE), and a column with no cells or virus or compound (background plate/reagent control). The control wells with cells but no virus are given an additional […], of growth media containing an equal quantity of sucrose as those wells receiving the viral stock in order to keep consistent in media and volume conditions. The outer wells of the plate are filled with 125 μL of moat media (DMEM, 1% Penn/Strep) to act as a thermal and evaporative moat around the test wells. Following a 5-day incubation period, the plates are read using ATPlite (50 uL added per well), which quantifies the amount of ATP (a measure of cell health) present in each well. Assay plates are read using the Envision luminometer. […] EC50 ranges are as follows: A<0.2 μM; B≥0.2 μM.

SMILES | EC50 [nM]
COc1cc(C(=O)NC[C@@](O)(c2cc3c(c(-c4ccc(F)cc4)n2)OC[C@@]3(N)C(F)(F)F)C(F)(F)F)ccc1OC1CC1 [Example 2, N—((R)-2-((R)-3-amino-7-(4-fluorophenyl)-3-(trifluoromethyl)-2,3-dihydrofuro[2,3-c]pyridin-5-yl)-3,3,3-trifluoro-2-hydroxypropyl)-4-cyclopropoxy-3-methoxybenzamide] | > 200
COc1cc(C(=O)NC[C@](O)(c2cc3c(c(-c4ccc(F)cc4)n2)OC[C@@]3(N)C(F)(F)F)C(C)(C)C)ccc1OC1CC1 [Example 12, N—((S)-2-((R)-3-amino-7-(4-fluorophenyl)-3-(trifluoromethyl)-2,3-dihydrofuro[2,3-c]pyridin-5-yl)-2-hydroxy-3,3-dimethylbutyl)-4-cyclopropoxy-3-methoxybenzamide] | > 200
COc1cc(C(=O)NC[C@](O)(c2cc3c(c(-c4ccc(F)cc4)n2)OC[C@@]3(NC(=O)CO)C(F)(F)F)C(F)(F)F)ccc1OC1CC1 [Example 14, 4-cyclopropoxy-3-methoxy-N—((S)-3,3,3-trifluoro-2-((R)-7-(4-fluorophenyl)-3-(2-hydroxyacetamido)-3-(trifluoromethyl)-2,3-dihydrofuro[2,3-c]pyridin-5-yl)-2-hydroxypropyl)benzamide] | < 200
C[C@](O)(CNC(=O)c1cc(OC2CC2)c2ncccc2c1)c1cc2c(c(-c3ccc(F)cc3)n1)OC[C@@]2(N)C(F)(F)F [Example 16, N—((S)-2-((R)-3-amino-7-(4-fluorophenyl)-3-(trifluoromethyl)-2,3-dihydrofuro[2,3-c]pyridin-5-yl)-2-hydroxypropyl)-8-cyclopropoxyquinoline-6-carboxamide] | < 200
COc1cc(C(=O)NC[C@](C)(O)c2cc3c(c(-c4ccc(F)cc4)n2)OC[C@@]3(N)C(F)(F)F)cc2cccnc12 [Example 17, N—((S)-2-((R)-3-amino-7-(4-fluorophenyl)-3-(trifluoromethyl)-2,3-dihydrofuro[2,3-c]pyridin-5-yl)-2-hydroxypropyl)-8-methoxyquinoline-6-carboxamide] | < 200
C[C@](O)(CNC(=O)c1ccc(OC2CC2)c(-c2cccnc2)c1)c1cc2c(c(-c3ccc(F)cc3)n1)OC[C@@]2(N)C(F)(F)F [Example 18, N—((S)-2-((R)-3-amino-7-(4-fluorophenyl)-3-(trifluoromethyl)-2,3-dihydrofuro[2,3-c]pyridin-5-yl)-2-hydroxypropyl)-4-cyclopropoxy-3-(pyridin-3-yl)benzamide] | < 200
COc1cc(C(=O)NC[C@](O)(c2cc3c(c(-c4ccc(F)cc4)n2)OC[C@@]3(N)C(F)(F)F)C(F)(F)F)ccc1OCCO [Example 31] | > 200
COc1cc(C(=O)NC[C@@](O)(c2cc3c(c(-c4ccc(F)cc4)n2)OC[C@]3(N)C(F)(F)F)C(F)(F)F)ccc1OCCO [Example 32] | > 200
COc1cc(C(=O)NC[C@](O)(c2cc3c(c(-c4ccc(F)cc4)n2)OC[C@]3(N)C(F)(F)F)C(F)(F)F)ccc1OCCO [Example 33] | > 200
COc1ccc(C(=O)NC[C@](O)(c2cc3c(c(-c4ccc(F)cc4)n2)OC[C@@]3(N)C(F)(F)F)C(F)(F)F)cc1OC [Example 34] | > 200
COc1cnc(C(=O)NC[C@](O)(c2cc3c(c(-c4ccc(F)cc4)n2)OC[C@@]3(N)C(F)(F)F)C(F)(F)F)cc1OC [Example 35] | > 200
COc1cc(C(=O)NC[C@](O)(c2cc3c(c(-c4ccc(F)cc4)n2)OC[C@@]3(N)C(F)(F)F)C(F)(F)F)ccc1OCC(C)C [Example 36] | > 200
COCCOc1ccc(C(=O)NC[C@](O)(c2cc3c(c(-c4ccc(F)cc4)n2)OC[C@@]3(N)C(F)(F)F)C(F)(F)F)cc1OC [Example 37] | > 200
COc1cc(F)c(C(=O)NC[C@](O)(c2cc3c(c(-c4ccc(F)cc4)n2)OC[C@@]3(N)C(F)(F)F)C(F)(F)F)cc1OC [Example 38] | > 200
COc1cc(C(=O)NC[C@](O)(c2cc3c(c(-c4ccc(F)cc4)n2)OC[C@@]3(N)C(F)(F)F)C(F)(F)F)cc(F)c1OC1CC1 [Example 39] | > 200
COc1cc(C(=O)NC[C@](O)(c2cc3c(c(-c4ccc(F)cc4)n2)OC[C@@]3(N)C(F)(F)F)C(F)(F)F)nc2ccccc12 [Example 40] | > 200

The remaining lines, values ahead:

EC50 [nM] | SMILES
> 200 | COc1cccc2cc(C(=O)NC[C@](O)(c3cc4c(c(-c5ccc(F)cc5)n3)OC[C@@]4(N)C(F)(F)F)C(F)(F)F)cnc12 [Example 41]
> 200 | COc1cc(C(=O)NC[C@](O)(c2cc3c(c(-c4ccc(F)cc4)n2)OC[C@@]3(N)C(F)(F)F)C(F)(F)F)ccc1C(F)(F)F [Example 42]
> 200 | COc1ccc2nc(C(=O)NC[C@](O)(c3cc4c(c(-c5ccc(F)cc5)n3)OC[C@@]4(N)C(F)(F)F)C(F)(F)F)cc(OC)c2c1 [Example 43]
> 200 | COC(=O)N[C@@]1(C(F)(F)F)COc2c1cc([C@@](O)(CNC(=O)c1ccc(OC3CC3)c(OC)c1)C(F)(F)F)nc2-c1ccc(F)cc1 [Example 44]
> 200 | CC(C)(C)S(=O)(=O)N[C@@]1(C(F)(F)F)COc2c1cc([C@@](C)(O)CNC(=O)c1cc(OC3CC3)c3ncccc3c1)nc2-c1ccc(F)cc1 [Example 45]
> 200 | COc1cc(C(=O)NC[C@](C)(O)c2cc3c(c(-c4ccc(F)cc4)n2)OC[C@@]3(NS(=O)(=O)C(C)(C)C)C(F)(F)F)cc2cccnc12 [Example 46]
< 200 | COC[C@](O)(CNC(=O)c1cc(OC2CC2)c2ncccc2c1)c1cc2c(c(-c3ccc(F)cc3)n1)OC[C@@]2(N)C(F)(F)F [Example 50, N—((S)-2-((R)-3-amino-7-(4-fluorophenyl)-3-(trifluoromethyl)-2,3-dihydrofuro[2,3-c]pyridin-5-yl)-2-hydroxy-3-methoxypropyl)-8-cyclopropoxyquinoline-6-carboxamide]
< 200 | Nc1nc2ccc(C(=O)NC[C@](O)(c3cc4c(c(-c5ccc(F)cc5)n3)OC[C@@]4(N)C(F)(F)F)C3CC3)cc2s1 [Example 52, 2-amino-N—((S)-2-((R)-3-amino-7-(4-fluorophenyl)-3-(trifluoromethyl)-2,3-dihydrofuro[2,3-c]pyridin-5-yl)-2-cyclopropyl-2-hydroxyethyl)benzo[d]thiazole-6-carboxamide]
< 200 | COc1cc(C(=O)NC[C@](O)(c2cc3c(c(-c4ccc(F)cc4)n2)OC[C@@]3(N)C(F)(F)F)C2CC2)cc2sc(N)nc12 [Example 53, 2-amino-N—((S)-2-((R)-3-amino-7-(4-fluorophenyl)-3-(trifluoromethyl)-2,3-dihydrofuro[2,3-c]pyridin-5-yl)-2-cyclopropyl-2-hydroxyethyl)-4-methoxybenzo[d]thiazole-6-carboxamide]
< 200 | Nc1nc2c(F)cc(C(=O)NC[C@](O)(c3cc4c(c(-c5ccc(F)cc5)n3)OC[C@@]4(N)C(F)(F)F)C3CC3)cc2s1 [Example 54, 2-amino-N—((S)-2-((R)-3-amino-7-(4-fluorophenyl)-3-(trifluoromethyl)-2,3-dihydrofuro[2,3-c]pyridin-5-yl)-2-cyclopropyl-2-hydroxyethyl)-4-fluorobenzo[d]thiazole-6-carboxamide]
< 200 | COc1cc(C(=O)NC[C@](O)(c2cc3c(c(-c4ccc(F)cc4)n2)OC[C@@]3(N)C(F)(F)F)C2CC2)cc2cn(C)nc12 [Example 55, N—((S)-2-((R)-3-amino-7-(4-fluorophenyl)-3-(trifluoromethyl)-2,3-dihydrofuro[2,3-c]pyridin-5-yl)-2-cyclopropyl-2-hydroxyethyl)-7-methoxy-2-methyl-2H-indazole-5-carboxamide]
> 200 | C[C@](O)(CNC(=O)c1cc(OC2CC2)c2ncccc2c1)c1cc2c(c(-c3ccc(F)c(Cl)c3)n1)OC[C@@]2(N)C(F)(F)F [Example 56]
> 200 | COc1cc(C(=O)NC[C@](O)(c2cc3c(c(-c4ccc(F)cc4)n2)OC[C@@]3(N)C(F)(F)F)C2COC2)ccc1OC1CC1 [Example 57]

Same assay, conditions: human respiratory syncytial virus, HEp-2, 120 h, read-out: Human RSV-A (“Long” strain) EC50

SMILES | EC50 [nM]
COC(=O)N[C@@]1(C(F)(F)F)COc2c1cc([C@@](C)(O)CNC(=O)c1ccc(OC3CC3)c(OC)c1)nc2-c1ccc(F)cc1 [Example 15, methyl ((R)-5-((S)-1-(4-cyclopropoxy-3-methoxybenzamido)-2-hydroxypropan-2-yl)-7-(4-fluorophenyl)-3-(trifluoromethyl)-2,3-dihydrofuro[2,3-c]pyridin-3-yl)carbamate] | < 200
COc1cc(C(=O)NC[C@](C)(O)c2cc3c(c(-c4ccc(F)cc4)n2)OC[C@@]3(NC(=N)NC#N)C(F)(F)F)ccc1OC1CC1 [Example 21, N—((S)-2-((R)-3-(3-cyanoguanidino)-7-(4-fluorophenyl)-3-(trifluoromethyl)-2,3-dihydrofuro[2,3-c]pyridin-5-yl)-2-hydroxypropyl)-4-cyclopropoxy-3-methoxybenzamide] | < 200
